Experimental data published in paper PMC8720282 (ACS chemical biology, 2021).

System: defibrinated rabbit red blood cells
Assay: Hemolysis assay
Assay type: cell-based
Settings: defibrinated rabbit RBCs, triplicate on three separate days

Compound: CC(C)(C)CC(C)(C)c1ccc(OCCO)cc1 [Triton X]
- hemolysis in THY media alone: significant degree of hemolysis
